Measured values published in patent US9913862B2, “Methods of treating gram-negative microbial infections” (TRUSTEES OF BOSTON UNIVERSITY, priority 2011, dated 2018).
Like-named read-outs stand apart in the source and are kept apart here.

Tests used:
dps reporter strain = dps reporter strain (OxyR disulfide bond formation sensor); assay type: cell-based, E. coli; details: 1 h
Source text: The forward primer for PCR was […] […] (SEQ ID NO: 2). […] Calibrite beads (Becton Dickinson) were used for instrument calibration. FlowJo was used to process flow cytometric data.

E. coli [1] = assay type: cell-based; details: for bactericidal activity when sublethal Ag+ is added to the antibiotic: sublethal antibiotic (0.25 μg/mL gentamicin, 0.03 μg/mL ofloxacin, 1 μg/mL ampicillin) plus 15 μM AgNO3
Experimental: Antibiotics and chemicals: All experiments presented herein were performed in Luria Bertani (LB) medium (Fisher Scientific). […] Additional chemicals that were used in the Examples include: phosphate buffer saline (PBS) (Sigma), Tris/HCl buffer pH 7.5 (Sigma), ferene-S(Fisher Scientific), 3′-p-hydroxyphenyl fluorescein dye (Invitrogen), propidium iodide (Invitrogen), and thiourea (Fluka).
Media and growth conditions: The growth and survival of untreated exponential-phase E. coli strains were compared with the antibiotic-treated strains. Briefly, cultures from frozen stock were grown overnight. The overnight culture was diluted 1:250 with 25 mL of LB medium in 250 mL flasks and incubated at 37° C., 300 rpm, and 80% humidity. Cells were then grown until an OD600 nm of 0.3. For antibiotic treatments, 500 μL samples were taken from the flasks and transferred to a 24-well plate incubated at 37° C., 900 rpms, and 80% humidity. For the hydroxyl radical (OH•) quenching experiments, thiourea (150 mM) was added simultaneously with the silver salt (e.g., AgNO3). Measurements of OD600 nm were taken using a SpectraFluor Plus (Tecan). For measuring the colony forming unit (cfu) per milliliter (mL), 100 μL of culture was collected and then serially diluted in PBS (pH 7.2). A 5 μL portion of each dilution was plated in LB-agar plates and incubated overnight at 37° C. The colonies were counted and cfu/mL was calculated using the following formula: ((number of colonies)*(dilution factor))/(amount plated).
Strains: All E. Coli experiments were performed with MG1655 (ATCC 700926)-derived strains. The knockouts were constructed using P1 phage transduction and derived from the Keio single-gene knockout collection. Removal of the kanamycin resistance cassette was accomplished using the pcp20 plasmid and confirmed by PCR prior to experimentation.

E. Coli [2] = experiment: Mouse peritonitis model, E. coli counts in peritoneal cavity; assay type: in vivo, mice; details: after 24 hours; single agent i.p.; 30 mg vancomycin/kg or 6 mg AgNO3/kg
Experimental: (§1) Minimum lethal dose (MLD) of E. coli for peritonitis mouse model: For all animal experiments, 6-week-old C57BL6 male mice (body weight, ˜20 g) were used. Serial dilutions of E. Coli ranging from 1×10^6-1×10^9 cfu/mouse were introduced into the peritoneal cavity of the mice in 500 μL aliquots of sterile saline supplemented with 8% mucine. […] The MLD was determined to be 5×10^6 cfu/mouse by measuring the lowest concentration of E. Coli that killed 100% of the recipient mice.
Mouse Peritonitis Model: Inbred, wildtype male C57BL/6 mice (6 weeks; ˜20 g) were used. After one week of quarantine, inoculation was performed by intraperitoneal (i.p.) injection of 500 μL of the MLD E. Coli inoculum using a 26-gauge syringe. The inoculum was delivered in suspension with 8% (w/v) mucine in sterile saline. 1 h after introduction of the inoculum, the untreated control group (t=0) was euthanized. Subsequently, antibacterial therapy was initiated by intraperitoneal injection. Ten mice per group received antibacterial treatments. At time 0 (control only), 8, 16 and 24 h, mice were euthanized. Peritoneal washes were performed by injecting 1.0 mL of sterile saline in the intraperitoneal followed by a massage of the abdomen. Subsequently, the abdomen was opened and 200 μL of peritoneal fluid (PF) was recovered from the peritoneum for analysis of E. Coli cfu/mL.

E. Coli [3] = experiment: Mouse peritonitis model, survival assay; assay type: in vivo, mice; details: after 5 days; i.p.; 30 mg vancomycin/kg, 6 mg AgNO3/kg (35 μM)
Experimental: as §1
Survival Assays: Male C57BL6 6-week old mice (weighing ˜20 g) received intraperitoneal injections of the MLD of E. Coli in a volume of 500 μL with 8% mucine. After 1 h, ten mice per group received either vehicle (PBS) only or infusions of the antibacterial treatments.

E. coli [4] = assay type: cell-based; details: for ROS production when sublethal Ag+ is added to the antibiotic: sublethal antibiotic plus 15 μM AgNO3
Source text: FlowJo was used to process flow cytometric data.

Fur reporter strain = details: one hour of treatment; 15 and 30 μM AgNO3
Experimental: (§2) Iron misregulation superoxide production and disulfide bond formation measurements: Iron regulation and superoxide production were measured using previously constructed genetic reporter strains. A disulfide bond formation sensor was constructed based on activation of the OxyR protein, which forms a disulfide bond in the presence of H2O2. The disulfide bond formation sensor was constructed by PCR-amplifying the native dps promoter and cloning it into the BamHI and XhoI restriction sites of the pZE21 vector [33]. The forward primer for PCR was […] (SEQ ID NO: 1), and the reverse primer was […] (SEQ ID NO: 2). The data were collected using a Becton Dickinson FACSCalibur flow cytometer with a 488-nm argon laser and a 515-545 nm emission filter (FL1) at high flow rate. Calibrite beads (Becton Dickinson) were used for instrument calibration. FlowJo was used to process flow cytometric data.

soxS reporter strain = details: 1 h, 30 μM AgNO3
Experimental: as §2

[5] = tested on: Fe—S clusters in E. Coli cell lysate; details: 30 μM AgNO3 for 1 hr
Experimental: Iron detection Ferene S colorimetric assay: The release of protein-bound iron in an E. Coli cell lysate was measured using a Ferene-S assay. The lysate was prepared by first growing 150 mL of cells to an OD600 nm of 0.7. The cells were then lysed by sonication in 20 mM Tris/HCl pH 7.2 buffer. The samples were centrifuged and the supernatants containing the cell lysates were collected. Lysates were treated either with heat (90° C. for 20 min) or with 30 μM AgNO3 (for 1 hr). 10 mM Ferene-S was added to each sample and samples were then incubated at room temperature for 1 h. Absorbance at 593 nm was then measured.

E. coli [6] = tested on: E. coli
Experimental: Transmission electron microscopy: Samples analyzed with transmission electron microscopy were prepared using the following procedure: 100 μL samples were taken, centrifuged and resuspended in 1×PBS twice. To fix the bacterial cells, the samples were centrifuged and resuspended in 1 mL of 2.5% glutaraldehyde solution in PBS for 30 min. The cells were then dehydrated by exposing them for 10 min to a series of ethanol concentration solutions (50, 60, 80, 90 and 100% ethanol/PBS solutions). The cells were finally embedded into Spurr resin and left to polymerize in an oven at 60° C. for 24 h. The polymerized samples were sectioned into slices of thickness of ˜60 nm using a microtome. The sliced samples were analyzed in a Jeol 1200EX-80 kV.

E. coli [7] = details: ΔdsbA knockout; 1 h; 30 μM AgNO3
[8] = tested on: human cell lines (primary keratinocytes, primary hepatocytes and neurons)
mice = details: concentrations up to 12 mg AgNO3/kg (70 μM)

OO [H2O2, reference compound]
dps reporter GFP fluorescence relative to untreated cells (dps reporter strain; 0.5 mM H2O2 alone): significantly increased fluorescence

CN[C@H](CC(C)C)C(=O)N[C@H]1C(=O)N[C@@H](CC(N)=O)C(=O)N[C@H]2C(=O)N[C@H]3C(=O)N[C@H](C(=O)N[C@H](C(=O)O)c4cc(O)cc(O)c4-c4cc3ccc4O)[C@H](O)c3ccc(c(Cl)c3)Oc3cc2cc(c3O[C@@H]2O[C@H](CO)[C@@H](O)[C@H](O)[C@H]2O[C@H]2C[C@](C)(N)[C@H](O)[C@H](C)O2)Oc2ccc(cc2Cl)[C@H]1O [vancomycin, reference compound]
cell death with combination relative to Ag+ or vancomycin alone (E. coli [1]; 30 μg/mL vancomycin combined with 15, 20 or 30 μM AgNO3): significantly higher levels of cell death
growth of Gram-negative microbes (E. coli) under combination (E. coli [1]; vancomycin combined with silver nitrate, silver ions about 15 μM, FIG. 8D): reduces the growth
effect on peritoneal E. Coli cell counts (E. Coli [2]): no effect
mice survived (E. Coli [3]): 10%

gentamicin [reference compound]
bactericidal activity when sublethal Ag+ is added to the antibiotic (E. coli [1]): significantly enhanced bactericidal activity
ROS (OH•) production from sublethal antibiotic alone (E. coli [4]; 1 h): no detectable increases in ROS production
ROS production when sublethal Ag+ is added to the antibiotic (E. coli [4]; 1 h): dramatic increases in ROS

O=[N+]([O-])[O-].[Ag+] [Ag^+, silver nitrate]
bactericidal activity against exponentially growing E. coli (E. coli [1]; 30 μM, wildtype): significant bactericidal activity
phenotype of DsbC knockout under treatment (E. coli [1]; DsbC knockout, 30 μM AgNO3): phenotype similar to that exhibited by ΔdsbA
reduction or inhibition of growth compared to untreated microbes (E. coli [1]; silver ions at about 30 μM, FIG. 1A): at least 30%
sensitivity of ΔarcA strain compared to wildtype (E. coli [1]; ΔarcA knockout, 30 μM AgNO3): lower sensitivity
sensitivity of ΔcpxA and ΔcpxR strains versus wildtype (E. coli [1]; ΔcpxA and ΔcpxR knockouts, 30 μM AgNO3): less sensitive
sensitivity of cytochrome bd knockout (ΔcydB) versus wildtype (E. coli [1]; 30 μM AgNO3): less sensitive
sensitivity of cytochrome bd knockout (ΔcydB) versus wildtype (E. coli [1]; 30 μM AgNO3, listed as silver nitrate): considerably less sensitivity
sensitivity of cytochrome bo knockout (ΔcyoA) versus wildtype (E. coli [1]; ΔcyoA knockout): greater sensitivity
sensitivity of ΔdsbA strain versus treated wildtype (E. coli [1]; ΔdsbA knockout, 30 μM AgNO3): more sensitive
sensitivity of TCA cycle gene knockout strains versus wildtype (E. coli [1]; ΔicdA, ΔsucB, Δmdh, ΔacnB, 30 μM AgNO3): less sensitive
phenotype of ΔiscS strain under treatment (E. coli [1]; ΔiscS knockout, 30 μM AgNO3): bacteriostatic phenotype
susceptibility of ΔsecG strain compared to wildtype (E. coli [1]; ΔsecG knockout, 30 μM AgNO3): less susceptible
HPF fluorescence (OH• production) compared to untreated cells (E. coli [4]; treated for one hour, 30 μM AgNO3, wildtype): detectable increases in fluorescence
hydroxyl radical production in ΔarcA strain compared to wildtype (E. coli [4]; ΔarcA knockout, 1 h, 30 μM AgNO3): lower hydroxyl radical production
hydroxyl radical production in ΔcpxA and ΔcpxR strains (E. coli [4]; ΔcpxA and ΔcpxR knockouts, 1 h, 30 μM AgNO3): lower levels of hydroxyl radical production
OH• production in ΔiscS compared to wildtype cells (E. coli [4]; ΔiscS knockout, 1 h, 30 μM AgNO3): significantly lower OH• production
Fur reporter GFP fluorescence relative to untreated cells (Fur reporter strain): significantly increased fluorescence
response of soxS reporter strain (superoxide production) (soxS reporter strain): induce superoxide production
superoxide levels in ΔcydB in response to treatment (soxS reporter strain; soxS reporter in ΔcydB): lower levels of superoxide
Fe+2 levels in treated lysate relative to untreated lysate [5]: higher Fe^+2 levels
physical changes of bacterial cells (TEM) at sublethal concentrations (E. coli [6]; 10 μM and 20 μM AgNO3): moderate morphological changes and protein aggregate formation
physical changes of bacterial cells (TEM) (E. coli [6]; bactericidal concentrations (30 μM AgNO3)): protein aggregation and drastic morphological changes in the cell envelope
dps reporter GFP fluorescence on addition to H2O2 treatment (dps reporter strain; 30 μM AgNO3 added to 0.5 mM H2O2): reduced the fluorescence back to untreated levels
effect on peritoneal E. Coli cell counts (E. Coli [2]): no effect
mice survived (E. Coli [3]): 50%
permeability (PI) of ΔdsbA strain versus treated wildtype (E. coli [7]): more permeable
toxicity in human cell lines [8]: no significant toxicity
toxicity in mice (mice): no effect

CC1(C)S[C@@H]2[C@H](NC(=O)[C@H](N)c3ccccc3)C(=O)N2[C@H]1C(=O)O [ampicillin, reference compound]
bactericidal activity when sublethal Ag+ is added to the antibiotic (E. coli [1]): significantly enhanced bactericidal activity
ROS (OH•) production from sublethal antibiotic alone (E. coli [4]; 1 h): no detectable increases in ROS production
ROS production when sublethal Ag+ is added to the antibiotic (E. coli [4]; 1 h): dramatic increases in ROS
